The values below come from patent publication US7723562B2, “Mice lacking alpha 1G showing enhanced novelty-seeking and alcohol preference and therapeutic methods for mood disorders by modulating alpha 1G T-type calcium channels” (Korea Institute of Science and Technology, priority 2004, dated 2010).

“Also recorded” adds a separate entry of the source.

The subject of this test is α1G−/− transgenic mice. Put plainly: Mobility in an open field after drug treatment (pharmacological analysis). Type of test: in vivo, mouse. To be noted: 0.5 mg/kg injected into abdominal cavity, FIG. 8. The text has this: For reactivity test in an open field, a test animal was transferred to a test room one hour before the test began and each animal was put in an independent breeding cage for adaptation.
In order to investigate whether or not mobility increase of α1G−/− transgenic mice is related to diseases such as attention-deficit hyperactive disorder, schizophrenia, stereotype, etc., the present inventors have performed analysis of pharmacological effect of lithium and amphetamine which have been used as a therapeutic agent for the above diseases.
First, the effect of lithium and amphetamine on reactivity to a new subject was investigated. Particularly, one hour before exposing a test animal on an experimental device, lithium or amphetamine (0.5 mg/kg, injection 10 ml/kg) was injected into abdominal cavity of the animal. The test procedure was in accordance with that of reactivity test in an open field, but a breeding cage (24×18×13 cm) took the place of a white acryl open field in this example and a subject used was a styrofoam covered with 0.5 g aluminum foil and the size of which was 1.5×1.5×1.5 cm. Behavior of the animal was all recorded by a video camera for further analysis. Same standard and behavior index were used.

For the molecule `CC(N)Cc1ccccc1` (centres unmarked) [amphetamine], the “early mobility increase of α1G−/− transgenic mice” value was “not mitigated; also recorded: did not decrease” and the “non environment dependent mobility increase” value is “over-induced; also recorded: increased excessively”.
